Consider four compounds from patent US20090076029A1 (Palatin Technologies, Inc., priority 2007, published 2009).

Where two headings read alike, the source gives them in different places. Square brackets hold non-standard residues; d marks the D form. * marks the point of attachment. dPhe(4-Cl) = N[C@H](Cc1ccc(Cl)cc1)C(=O)O; Heptanoyl = CCCCCCC(=O)*; Bn = c1ccc(C*)cc1

One assay has as its target T1, hMC3-R.
T1 construct: expressed in transfected cells; host or cells: HEK-293
The assay is described as follows: Competitive inhibition assay using [I125]-NDP-α-MSH, hMC3-R membranes. The assay is classed as binding, human. The settings on record: read-out: Ki (nM) (NDP-α-MSH) MC3-R. As to the method: (§1) Competitive inhibition assay using [1125]-NDP-α-MSH. A competitive inhibition binding assay was conducted using membranes prepared from HEK-293 cells transfected to express hMC3-R, hMC4-R or hMC5-R, and from B-16 mouse melanoma cells (containing MC1-R) using 0.2 to 0.4 nM [I^125]-NDP-α-MSH (New England Nuclear) in 50 mM HEPES buffer containing 1 mM MgCl2, 2 mM CaCl2, and 5 mM KCl, at pH 7.2. In certain experiments, HEK-293 cells transfected to express hMC1-R were also employed. The assay tube also contained a chosen concentration of the test compound of this invention, typically a 1 μM concentration, for determining inhibition of the binding of [^1125]-NDP-α-MSH to its receptor. Non-specific binding was measured by inhibition of binding of [I^125]-NDP-α-MSH in the assay with the presence of 1 μM α-MSH.
(§2) The assay mixture was incubated for 90 minutes at room temperature, then filtered and the membranes washed three times with ice cold buffer. The filter was dried and counted in a gamma counter for remaining radioactivity bound to the membranes. 100% specific binding was defined as the difference in radioactivity (cpm) bound to cell membranes in the absence and presence of 1 μM α-MSH. The cpm obtained in presence of test compounds were normalized with respect to 100% specific binding to determine the percent inhibition of [125]-NDP-α-MSH binding. Each assay was conducted in triplicate and the actual mean values are described, with results less than 0% reported as 0%.

The test system of assay [1] is T2, hMC4-R.
T2 construct: expressed in transfected cells; host or cells: HEK-293
The assay is described as follows: cAMP functional assay in HEK-293 cells expressing MC4-R (agonist, neutral antagonist/Schild). The note with it: for intrinsic activity at MC4-R: NDP-α-MSH maximal stimulation = 1.0; for functional status at MC4-R: mostly at 1 μM. The assay is classed as cell-based, human. How it is done:
General method for EC50 determination in functional activity assay. Functional evaluation of compounds at melanocortin receptors was performed by measuring the accumulation of intracellular cAMP in HEK-293 cells expressing hMC3-R, hMC4-R or hMC5-R, and in B-16 mouse melanoma cells expressing MC1-R. Cells suspended in Earle's Balanced Salt Solution containing 10 mM HEPES (pH 7.5), 5 mM MgCl2, 1 mM glutamine, 0.1% albumin and 0.6 mM 3-isobutyl-1-methyl-xanthine, a phosphodiesterase inhibitor, were plated in 96 well plates at a density of 0.5×10^5 cells per well. Cells were incubated with the test compounds in the presence or absence of α-MSH for 1 hour at 37° C. cAMP levels in the cell lysates were measured using an EIA kit (Amersham). Data analysis and EC50 values were determined using nonlinear regression analysis with Prism Graph-Pad software.
Functional status. The agonist/antagonist status with respect to MC1-R, MC-3R, MC4-R and MC5-R of certain compounds of the invention was determined.
Assay for agonist. Evaluation of the molecules to elicit a functional response in HEK-293 cells expressing MC4-R was accomplished by measuring the accumulation of intracellular cAMP following treatment. Confluent HEK-293 cells expressing MC4-R were detached by enzyme free cell suspension buffer. Cells were suspended in Earle's Balanced Salt Solution containing 10 mM HEPES (pH 7.5), 1 mM MgCl2, 1 mM glutamine, 0.5% albumin and 0.3 mM 3-isobutyl-1-methyl-xanthine (IBMX), a phosphodiesterase inhibitor. The cells were plated in 96 well plates at a density of 0.5×10^5 cells per well and pre-incubated for 30 minutes. The cells were then challenged with the test compounds dissolved in DMSO at a concentration range of 0.05-5000 nM in a total assay volume of 200 μL for 1 hour at 37° C. The concentration of DMSO was always held at 1% in the assay mixture. NDP-α-MSH was used as the reference agonist. At the end of the incubation period the cells were disrupted by the addition of 50 μL of lysis buffer from a cAMP EIA kit (Amersham). Complete rupture of the cells was obtained by pipetting the cells multiple times. cAMP levels in the cell lysates were measured after appropriate dilution using the EIA kit (Amersham) method. Data analysis and EC50 values were determined by using nonlinear regression analysis with Prism Graph-Pad software. […] FIG. 1 illustrates typical results, showing the stimulation of cAMP using the compound of Example 11 in HEK-293/MC4-R cells with comparison to NDP-α-MSH.
Assay for Neutral Antagonist. Compounds with a high affinity for binding to MC4-R membranes but with less potency in terms of cAMP accumulation (EC50>1000 nM) and low response ratio (<0.1) were analyzed for their ability to antagonize the stimulatory effect of the agonist NDP-α-MSH. These studies were carried out in HEK-293 cells expressing MC4-R. Cells were incubated with the compounds in the presence of the agonist NDP-α-MSH and the extent of antagonism was measured by the decrease in intracellular cAMP concentrations. Screening the compounds for antagonist activity was performed at a single concentration of NDP-α-MSH (1.0 nM) over a compound concentration range of 0.5-5000 nM.
Experimental details were similar to the analysis for agonistic activity described above. Briefly, cells were pre-incubated for 30 minutes with the test compounds at concentrations between 0.5 nM and 5000 nM. The cells were then stimulated with NDP-α-MSH at a concentration of 1 nM for 1 hour. For Schild's analysis, the interactions were studied using at least 3 concentrations of the compounds, separated by a log unit, over a full range of the agonist (0.005-5000 nM). cAMP levels were measured in the cell lysates after appropriate dilution. Nonlinear regression analysis with Prism Graph-Pad software was used for Schild analysis and to obtain EC50 values. pA2 values were derived from the Schild plot of the data.

The target in assay [2] is T2, hMC4-R. Put plainly: Competitive inhibition assay using [I125]-NDP-α-MSH, hMC4-R membranes. The class given is binding, human. The settings on record: for attenuation of binding of α-MSH and AgRP to MC4-R: both ligands (NDP-α-MSH and AgRP), summary. How it is done:
as §1, §2

In another assay the target is T3, hMC5-R.
T3 construct: expressed in transfected cells; host or cells: HEK-293
The assay is described as follows: Competitive inhibition assay using [I125]-NDP-α-MSH, hMC5-R membranes. The assay is classed as binding, human. The note with it: read-out: Ki (nM) (NDP-α-MSH) MC5-R. As to the method:
as §1, §2

For assay [3], the system named is T2, hMC4-R. The assay is classed as binding, human. The note with it: for Inhibition at 1 μM (AgRP) MC4-R: 1 μM compound. How it is done: Competitive binding assay using [I^125]-AgRP (83-132). Competitive binding studies using [I^125]-AgRP (83-132) were carried out on membranes isolated from cells expressing hMC4-R. The assay was performed in 96 well GF/B Millipore multiscreen filtration plates (MAFB NOB10) pre-coated with 0.5% bovine serum albumin (Fraction V). The assay mixture contained 25 mM HEPES buffer (pH 7.5) with 100 mM NaCl, 2 mM CaCl2, 2 mM MgCl2, 0.3 mM 1,10-phenanthroline, 0.5% bovine serum albumin, cell membranes, radioligand [I^125]-AgRP (83-132) (NEN), and increasing concentrations of compounds in a total volume of 200 μL. Binding was measured at radioligand concentrations of 0.2 nM. After incubating for 1 hour at 37° C., the reaction mixture was filtered and washed with an assay buffer containing 500 mM NaCl. The dried discs were punched out from the plate and counted on a gamma counter. Care was taken to limit the specific binding of the ligand to an amount not exceeding 10% of the counts added to the reaction mixture. Data were analyzed using the Prism Graph-Pad curve fitting software.

Where [4] appears, read: MC4-R, Table 1 in μM, read-out: EC50.
Setting [5] is: cAMP assay, read-out: EC50 (nM) at MC4-R.
[6] abbreviates: MC4-R membranes, Table 1, read-out: Ki (nM) I125-NPD-α-MSH.
Where [7] appears, read: read-out: Ki (nM) (NDP-α-MSH) MC4-R.
Setting [8] is: MC4-R membranes, Table 1, read-out: Ki (nM) I125-AgRP.

In the case of “2-naphthylacetyl-1-amino-1-cyclohexane-carbonyl-D-Phe(4-Cl)-Arg-Trp-NH2 [Example 25]”, the Ki (in general, the dissociation constant of the complex between target and ligand, obtained from inhibition or displacement) at hMC3-R was found to be 453 nM; at hMC4-R [2] (setting [6]) it was 40 nM; on hMC4-R [2] (setting [7]), 40 nM; on hMC5-R it was 300 nM; on hMC4-R [3] (setting [8]) it was 50 nM; on hMC4-R [3] (read-out: Ki (nM) (AgRP) MC4-R) it was 50 nM. The “functional status (pAg, Ag, Antag, Inactive)” value with hMC4-R [1] (MC4-R, Table 1) was “pAg (“pAg” means partial agonist)”. Further, the EC50 in the assay with hMC4-R [1] (setting [4]) and with hMC4-R [1] (setting [5]) was > 1 µM throughout. Further, the “intrinsic activity at MC4-R” value with hMC4-R [1] was determined as 0.2. Further, the “functional status at MC4-R” value in the assay on hMC4-R [1] (cAMP assay) is “partial agonist (intrinsic activity between 0.1 (10%) and 0.7 (70%) is classified as a partial agonist)”. The “attenuation of binding of α-MSH and AgRP to MC4-R” value (“attenuation” for short) with hMC4-R [2] was “attenuate the binding of both α-MSH and AgRP to MC4-R”. Further, the Inhibition (commonly the change of the read-out against control, counted positive when it falls) at 1 μM (AgRP) MC4-R with hMC4-R [3] came out at 91%.

As for “7′-amino-heptanoyl-Ser(Bzl)-D-Phe(4-Cl)-Arg-S-(−)-1-(1-naphthyl)ethylamide [Example 17]”, the Ki at hMC3-R came out at 125 nM; at hMC4-R [2] (setting [6]), 7 nM; at hMC4-R [2] (setting [7]), 7 nM; at hMC5-R, 313 nM; on hMC4-R [3] (setting [8]), 0.6 nM; at hMC4-R [3] (read-out: Ki (nM) (AgRP) MC4-R) it was 0.6 nM. Further, in the assay on hMC4-R [1] (MC4-R, Table 1), the “functional status (pAg, Ag, Antag, Inactive)” value is “pAg (“pAg” means partial agonist)”. Besides, the EC50 (usually the concentration at which the effect is half-maximal) came to 0.017 µM in the assay with hMC4-R [1] (MC4-R, Table 1, read-out: EC50) and 0.017 µM in the assay with hMC4-R [1] (setting [5]). Further, in the assay with hMC4-R [1], the “intrinsic activity at MC4-R” value was 0.3. Moreover, in the assay with hMC4-R [2], the “attenuation” value was “attenuate the binding of both α-MSH and AgRP to MC4-R”. In the assay on hMC4-R [3], the “Inhibition at 1 μM (AgRP) MC4-R” value is recorded as 100%.

Regarding `N=C(N)NCCC[C@H]1C(=O)N2C(CC[C@@H]2COc2ccc3ccccc3c2)N1C(=O)[C@@H](Cc1ccc(Cl)cc1Cl)NC(=O)[C@@H]1Cc2ccccc2CN1` (stereo partly drawn) [Example 23, (S)-1,2,3,4-Tetrahydro-isoquinoline-3-carboxylic acid {(R)-1-(2,4-dichloro-benzyl)-2-[(2S,5R)-2-(3-guanidino-propyl)-5-(naphthalen-2-yloxymethyl)-3-oxo-hexahydro-pyrrolo[1,2-a]imidazol-1-yl]-2-oxo-ethyl}-amide], the inhibition constant (Ki) on hMC3-R worked out at 42 nM; at hMC4-R [2] (setting [6]), 1 nM; on hMC4-R [2] (setting [7]), 1 nM; at hMC5-R it was 26 nM; on hMC4-R [3] (setting [8]), 1.2 nM; at hMC4-R [3] (read-out: Ki (nM) (AgRP) MC4-R) it was 1.2 nM. Also, in the assay on hMC4-R [1] (MC4-R antagonists, Table 1), the “pA2 (M)” value is on record as 8.086. In the assay on hMC4-R [1] (MC4-R, Table 1), the “functional status (pAg, Ag, Antag, Inactive)” value was “Antag (“Antag” means antagonist)”. The “pA2 value at MC4-R” value in the assay on hMC4-R [1] (Schild plot vs NDP-α-MSH) came out at 8.0. In addition, in the assay on hMC4-R [1] (cAMP assay), the “functional status at MC4-R” value is recorded as “antagonist”. Moreover, the “Inhibition at 1 μM (AgRP) MC4-R” value in the assay on hMC4-R [3] came out at 100%.

With “Heptanoyl-T(Bn)[dPhe(4-Cl)]RW-NH2 [Example 24]”, the Ki at hMC3-R was 374 nM; on hMC4-R [2] (setting [6]), 21 nM; on hMC4-R [2] (setting [7]), 21 nM; at hMC5-R, 292 nM; on hMC4-R [3] (setting [8]), 69 nM; at hMC4-R [3] (read-out: Ki (nM) (AgRP) MC4-R), 69 nM. In the assay on hMC4-R [1] (MC4-R, Table 1), the “functional status (pAg, Ag, Antag, Inactive)” value was “pAg (“pAg” means partial agonist)”. The EC50 in the assay with hMC4-R [1] (setting [4]) and in the assay on hMC4-R [1] (setting [5]) was > 1 µM in each case. In the assay on hMC4-R [1], the “intrinsic activity at MC4-R” value is 0.4. Moreover, in the assay on hMC4-R [2], the “attenuation” value was “attenuate the binding of both α-MSH and AgRP to MC4-R”. For the same compound, the “Inhibition at 1 μM (AgRP) MC4-R” value with hMC4-R [3] is on record as 90%.
